Experimental data reported in US20170172994A1, “COMPOSITIONS AND METHODS FOR TREATING BACTERIAL INFECTIONS” (WOCKHARDT LIMITED, priority 2013, published 2017).

Experiments:
[1] = tested on: ESBL enzymes from K. pneumoniae S48 producing Metalo betalactamase (NDM4) and Class A (CTX-M, SHV, TEM) beta-lactamase; assay: Beta-lactamase stability study (crude enzyme extract, then drug diffusion assay on E. coli ATCC 25922); format: biochemical; settings: for Inhibition zone diameter after treatment with beta-lactamase enzyme: 40 μg/ml, zone on E. coli ATCC 25922
Protocol: Next, the beta-lactamase stability of some of these compounds was evaluated. In a typical stability study, ESBL enzymes from K. pneumoniae S48 producing Metalo betalactamase (NDM4) and Class A (CTX-M, SHV, TEM) beta-lactamase were isolated from freshly grown culture by 5 repetitive cycles of freeze and thaw in liquid nitrogen. […] After the stipulated incubation duration, the test compounds were extracted from the reaction mixture by the addition of 0.5 ml of Acetonitrile in 1:1 ratio (final concentration of test compound—40 μg/ml) and centrifuged at 12000 rpm for 2 min to separate precipitated protein. The activity of test compounds was measured from the supernatant by performing microbiological drug diffusion assay. For drug diffusion assay, Muller-Hinton Agar (MHA) seeded with E. coli ATCC 25922 was poured on to a bioassay plate placed on a flat surface and allowed to solidify. Appropriate concentration of the standalone and enzyme treated test compound dilutions were added to 6 mm wells cut with the help of a borer. The antibacterial activity of the test compounds was measured in terms of zones of inhibition appearing after 18-24 hours of incubation at 37° C. Measurement of diameter of zone of inhibition was undertaken to the nearest whole value with the help of ruler.

Pseudomonas PBP 1A = biological target: T1, Pseudomonas PBP 1A (Pseudomonas aeruginosa, UniProt Q07806); assay: PBP binding assay (Bocillin FL competition); settings: Pseudomonas PBP 1A; read-out: IC50 (converted)
T1 construct: endogenous in cells
T1 sequence (Q07806 whole entry): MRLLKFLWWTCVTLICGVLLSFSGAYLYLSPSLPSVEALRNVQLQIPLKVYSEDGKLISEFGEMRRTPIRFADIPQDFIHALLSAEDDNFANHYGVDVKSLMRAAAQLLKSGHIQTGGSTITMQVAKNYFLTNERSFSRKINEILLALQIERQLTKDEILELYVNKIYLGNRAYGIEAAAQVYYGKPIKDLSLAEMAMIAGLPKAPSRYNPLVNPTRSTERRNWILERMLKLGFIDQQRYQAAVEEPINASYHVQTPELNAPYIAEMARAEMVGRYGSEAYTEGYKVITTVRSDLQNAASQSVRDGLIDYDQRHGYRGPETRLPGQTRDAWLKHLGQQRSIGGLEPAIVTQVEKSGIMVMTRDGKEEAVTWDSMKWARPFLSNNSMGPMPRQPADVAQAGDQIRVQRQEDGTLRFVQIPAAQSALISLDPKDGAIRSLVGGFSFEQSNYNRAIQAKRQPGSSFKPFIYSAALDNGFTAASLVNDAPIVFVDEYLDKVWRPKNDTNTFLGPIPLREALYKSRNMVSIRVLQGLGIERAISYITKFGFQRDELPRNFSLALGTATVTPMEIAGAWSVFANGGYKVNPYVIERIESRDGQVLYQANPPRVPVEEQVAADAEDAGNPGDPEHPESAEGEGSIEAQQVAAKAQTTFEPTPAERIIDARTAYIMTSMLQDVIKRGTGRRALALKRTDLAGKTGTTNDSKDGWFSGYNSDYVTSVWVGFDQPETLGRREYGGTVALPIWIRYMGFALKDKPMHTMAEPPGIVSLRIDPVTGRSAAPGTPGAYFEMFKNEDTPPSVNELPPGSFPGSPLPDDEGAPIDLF
Protocol: (§1) The phrase “selective and high affinity PBP binder” refers to a PBP binder which binds to only one PBP with very high affinity. In general, the term “selective and high affinity PBP binder” also includes those binders where a substantial fraction of binder selectively binds to only one PBP with high affinity. […]. The term “IC50 value” of a compound refers to the concentration of the compound that reduces the binding of Bocillin-FL to PBPs by 50% as compared to when no compound was added to the reaction.
(§2) A compound of Formula (III) was prepared using the procedure disclosed in PCT International Application No. PCT/IB2012/054290 and was evaluated for its PBP binding affinity profile. […] The reaction mixtures were then denatured with 20 μl each of SDS-denaturing solution at 100° C. for 3 min PBPs were separated through 10% SDS polyacrylamide gel electrophoresis (Bio-Rad Laboratories, Hercules, Calif.). The protein gels were rinsed in water immediately after electrophoresis. […] […].

Pseudomonas PBP 5/6 = Pseudomonas PBP 5/6 (Pseudomonas aeruginosa, UniProt G3XD74); assay: PBP binding assay (Bocillin FL competition); settings: read-out: IC50
Pseudomonas PBP 5/6, sequence (G3XD74 entry or part of it): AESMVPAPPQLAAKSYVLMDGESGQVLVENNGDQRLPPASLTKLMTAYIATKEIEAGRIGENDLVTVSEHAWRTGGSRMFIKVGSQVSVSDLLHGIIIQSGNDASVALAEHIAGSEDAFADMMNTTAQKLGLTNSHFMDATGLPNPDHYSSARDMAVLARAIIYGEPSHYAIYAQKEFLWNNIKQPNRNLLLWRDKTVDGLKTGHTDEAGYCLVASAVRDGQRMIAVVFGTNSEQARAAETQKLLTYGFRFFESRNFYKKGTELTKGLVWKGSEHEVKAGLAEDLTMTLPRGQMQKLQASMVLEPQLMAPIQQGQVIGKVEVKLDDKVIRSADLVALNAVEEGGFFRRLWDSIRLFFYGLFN
Protocol: as §1, §2

[2] = tested on: Pseudomonas aeruginosa NCTC 13437 producing carbapenem hydrolyzing MBL (VIM 10) & Class A (VEB1); assay: Time kill study (viability count); format: cell-based; settings: Cefepime 8 μg/ml, Compound of Formula (III) 8 μg/ml, Imipenem 16 μg/ml
E. coli ATCC 25922 = assay: Time kill study (viability count); format: cell-based; settings: for Bacterial count: Compound of Formula (III) 2 μg/ml, alone or combined
[3] = tested on: Acinetobacter baumannii NCTC 13304 producing carbapenem hydrolyzing Class D OXA enzyme (OXA 27); assay: Time kill study (viability count); format: cell-based; settings: Cefepime 8 μg/ml, Compound of Formula (III) 8 μg/ml, Imipenem 16 μg/ml
P. aeruginosa PAO1 = assay: Time kill study (viability count); format: cell-based; settings: for Bacterial count: Compound of Formula (III) 4 μg/ml, alone or combined
K. pneumoniae B88 = assay: Minimum filamentation / spheroplasting concentration; settings: K. pneumoniae B88 (NDM, SHV, TEM); minimum spheroplasting concentration
Excerpt: The term “MSC” as used herein refers to minimum spheroplasting concentration, which is the minimum concentration of an antibacterial agent at which about 80% of bacterial cells covert into spheroplasts.
The term “MFC” as used herein refers to minimum filamentation concentration, which is the minimum concentration of an antibacterial agent at which about 80% of bacterial cells get elongated to form filament like structures.

O=C(NNC(=O)[C@@H]1CC[C@@H]2CN1C(=O)N2OS(=O)(=O)O)[C@@H]1CCCNC1 [Compound of Formula (III), trans-(2S,5R)-sulfuric acid mono-[2-(N′—[(R)-piperidin-3-carbonyl]-hydrazino Carbonyl)-7-oxo-1,6-diaza-bicyclo[3.2.1]oct-6-yl] Ester]
Inhibition zone diameter after treatment with beta-lactamase enzyme ([1]; 0 hour incubation at 37° C.): 16 mm
Inhibition zone diameter after treatment with beta-lactamase enzyme ([1]; 1 hour incubation at 37° C.): 16 mm
Inhibition zone diameter after treatment with beta-lactamase enzyme ([1]; 2 hours incubation at 37° C.): 16 mm
Inhibition zone diameter after treatment with beta-lactamase enzyme ([1]; 24 hours incubation at 37° C.): 16 mm
Stability to beta-lactamase (in words) ([1]; carbapenem hydrolyzing metallo beta-lactamase, up to 24 hours): stable and not inactivated by the beta-lactamase
IC50 (Pseudomonas PBP 1A): > 10.2 µM
IC50 (Pseudomonas PBP 5/6): > 10.2 µM
Bacterial count ([2]; 0 hour): 6.0 log (CFU/ml)
Bacterial count ([2]; 2 hours): 6.55 log (CFU/ml)
Bacterial count ([2]; 4 hours): 5.9 log (CFU/ml)
Bacterial count ([2]; 6 hours): 5.81 log (CFU/ml)
Bacterial count ([2]; 12 hours): 6.2 log (CFU/ml)
Bacterial count (E. coli ATCC 25922; 0 hour, Aztreonam 1 μg/ml): 7.47 log (CFU/ml)
Bacterial count (E. coli ATCC 25922; 0 hour, Cefoxitin 1 μg/ml): 7.47 log (CFU/ml)
Bacterial count (E. coli ATCC 25922; 0 hour, Cefsulodin 16 μg/ml): 7.47 log (CFU/ml)
Bacterial count (E. coli ATCC 25922; 2 hours, Aztreonam 1 μg/ml): 7.85 log (CFU/ml)
Bacterial count (E. coli ATCC 25922; 2 hours, Cefoxitin 1 μg/ml): 7.85 log (CFU/ml)
Bacterial count (E. coli ATCC 25922; 2 hours, Cefsulodin 16 μg/ml): 7.85 log (CFU/ml)
Bacterial count (E. coli ATCC 25922; 4 hours, Aztreonam 1 μg/ml): 7.88 log (CFU/ml)
Bacterial count (E. coli ATCC 25922; 4 hours, Cefoxitin 1 μg/ml): 7.88 log (CFU/ml)
Bacterial count (E. coli ATCC 25922; 4 hours, Cefsulodin 16 μg/ml): 7.88 log (CFU/ml)
Bacterial count (E. coli ATCC 25922; 6 hours, Aztreonam 1 μg/ml): 8.26 log (CFU/ml)
Bacterial count (E. coli ATCC 25922; 6 hours, Cefoxitin 1 μg/ml): 8.26 log (CFU/ml)
Bacterial count (E. coli ATCC 25922; 6 hours, Cefsulodin 16 μg/ml): 8.26 log (CFU/ml)
Bacterial count (E. coli ATCC 25922; 24 hours, Aztreonam 1 μg/ml): 8.34 log (CFU/ml)
Bacterial count (E. coli ATCC 25922; 24 hours, Cefoxitin 1 μg/ml): 8.34 log (CFU/ml)
Bacterial count (E. coli ATCC 25922; 24 hours, Cefsulodin 16 μg/ml): 8.34 log (CFU/ml)
Bactericidal action (in words) (E. coli ATCC 25922; E. coli ATCC 25922, standalone or combination, Tables 3 to 5): did not exhibit any significant bactericidal action
Bacterial count ([3]; 0 hour): 6.3 log (CFU/ml)
Bacterial count ([3]; 2 hours): 7.5 log (CFU/ml)
Bacterial count ([3]; 4 hours): 7.9 log (CFU/ml)
Bacterial count ([3]; 6 hours): 8.1 log (CFU/ml)
Bacterial count ([3]; 8 hours): 8.1 log (CFU/ml)
Bacterial count (P. aeruginosa PAO1; 0 hour, Aztreonam 2 μg/ml): 5.74 log (CFU/ml)
Bacterial count (P. aeruginosa PAO1; 0 hour, Cefsulodin 2 μg/ml): 6.81 log (CFU/ml)
Bacterial count (P. aeruginosa PAO1; 2 hours, Aztreonam 2 μg/ml): 6.5 log (CFU/ml)
Bacterial count (P. aeruginosa PAO1; 2 hours, Cefsulodin 2 μg/ml): 7.23 log (CFU/ml)
Bacterial count (P. aeruginosa PAO1; 4 hours, Aztreonam 2 μg/ml): 7.6 log (CFU/ml)
Bacterial count (P. aeruginosa PAO1; 4 hours, Cefsulodin 2 μg/ml): 7.18 log (CFU/ml)
Bacterial count (P. aeruginosa PAO1; 6 hours, Aztreonam 2 μg/ml): 7.9 log (CFU/ml)
Bacterial count (P. aeruginosa PAO1; 6 hours, Cefsulodin 2 μg/ml): 7.5 log (CFU/ml)
Bacterial count (P. aeruginosa PAO1; 24 hours, Aztreonam 2 μg/ml): 8.8 log (CFU/ml)
Bacterial count (P. aeruginosa PAO1; 24 hours, Cefsulodin 2 μg/ml): 8.2 log (CFU/ml)
Bactericidal action (in words) (P. aeruginosa PAO1; P. aeruginosa PAO1, standalone or combination, Tables 6 and 7): did not exhibit any bactericidal action
MSC (K. pneumoniae B88): 0.12 µg/mL
